Test results taken from US20100076089A1, “ANTIMICROBIAL GEL FORMULATIONS” (NovaBay Pharmaceuticals, Inc., priority 2008, published 2010).
“And” between values parts separate entries of the source, which are not always exact repeats. Identical values can stand only once.

Legend:
S. aureus = assay: Time-kill assay of antimicrobial gel formulations; type: cell-based; conditions: final inoculum 1.5×10^7 CFU/mL, room temperature
Experimental: Isolated S. aureus colonies were picked into 5 mL Tryptic Soy Broth (TSB) and grown for 4-6 hours at 37° C. Stock titers were determined by drop plate method. A working stock of S. aureus was prepared by dilution of the culture to a final inoculum of 1.5×10^8 colony forming units (CFU) per mL in sterile pH 4.0 saline. 900 μL of each tested formulation was placed in sterile glass tubes. A 0.1 mL aliquot of S. aureus suspension containing 1.5×10^8 CFU/mL was inoculated into the test sample container to give a final inoculum of 1.5×10^7 CFU/mL. The inoculated formulation was immediately mixed for 3 seconds following inoculation using a vortex and incubated at room temperature. A plate count was performed on the inoculated samples after 0, 5, 15, 30 and 60 minutes following inoculation as follows: • 0.1 mL of the inoculated antimicrobial test agent was placed into 0.9 mL of the D/E neutralizing broth • A 0.1 mL aliquot of each sample in D/E broth was drop plated on appropriately labeled agar dishes
All plates were incubated at 37° C. for 24 hours for bacterial growth assessment. At the conclusion of the incubation period the number of colonies present on the plates was counted. The total number of survivors at each time point was calculated by multiplying the CFU count obtained by the dilution factor.

S. aureus 29213 = assay: Radial diffusion assay of antimicrobial gel formulations; type: cell-based; conditions: 100 μl of formulation
Experimental: Vials containing 0.6% NVC-422 (Drug Control), liquid, pH=5.0; 3% Polyox® WSR 205 (Placebo) Liquid, R.T. pH=5.0; 0.6% NVC-422/3% Polyox® WSR 205, Liquid, R.T., pH=5.0; 0.75% AA-1 (Placebo), 0.6% NVC-422/0.75% AA-1 and 0.23% AA-1 (alternate placebo) were prepared. The first three test articles appeared as clear liquids, while the last three appeared as gels. The samples were tested in the radial diffusion assay against S. aureus 29213. 100 μl of each formulation were tested in duplicate on two plates each (n=4 total).

S. aureus 6538 biofilm = assay: Calgary Biofilm Device (MBEC) assay, absorbance reading; type: cell-based; conditions: 24 hr biofilm, treatment 60 minutes, overnight regrowth in TSB; values greater than 0.1 indicate incomplete biofilm eradication
Experimental: S. aureus 6538 biofilm was grown in MBEC plates for 24 hr at 35° C. for 24 hr in TSB prior to treatment using the method describe above. The MBEC lid containing pegs coated with biofilm was first rinsed in a plate containing […] of PBS in each well for 1 minute, prior to treatment with a plate containing formulations for 60 minutes total. The lid was neutralized in a plate containing 200 μl D/E Neutralization broth in each well for 1 minute before transferring the lid into a plate containing 150 μl TSB in each well. Plate was incubated overnight at 35° C. Absorbance was read at 650 nm the following day.

[1] = Amount of N,N-dichloro-2,2-dimethyltaurine an AA-1 formulation can hold; type: physicochemical
Excerpt: The formulations may be made by mixing the N-halogenated or N,N-dihalogenated amine compound with the polymer using water. Water/oil emulsions, hydrating agents, wetting agents, surfactants, and the like may also be used. Concentrations of N-halogenated or N,N-dihalogenated amine compound may range from about 0.01% to about 5.0% (by weight). Concentrations of polymer may be from about 0.01% to about 10% (by weight) in water. For example, in certain implementations, the concentration of N-halogenated or N,N-dihalogenated compounds may range from about 0.1% to about 2.0% (by weight). Higher concentrations of polymer may be required to formulate higher concentrations of the N-halogenated or N,N-dihalogenated amine compound. For example, a 1% AA-1 formulation can hold up to about 2% N,N-dichloro-2,2-dimethyltaurine, whereas a 2% AA-1 formulation can hold up to about 3.5% of the same compound. These ratios may differ as different polymers and N-halogenated or N,N-dihalogenated amine compound are combined in a given formulation.

CC(C)(CS(=O)(=O)O)N(Cl)Cl [0.3% NVC-422 alone, N,N-dichloro-2,2-dimethyltaurine]
time to complete kill (S. aureus): 1 h

CC(C)(CS(=O)(=O)O)N(Cl)Cl [0.6% NVC-422, N,N-dichloro-2,2-dimethyltaurine]
time to complete kill (S. aureus; listed as 0.6% NVC-422 alone): 0.25 h | Clearing zone diameters, Sample 1 (S. aureus 29213; pH 5.0): 15 mm | Clearing zone diameters, Sample 2 (S. aureus 29213; pH 5.0): 16 mm | Clearing zone diameters, Sample 3 (S. aureus 29213; pH 5.0): 16 mm | Clearing zone diameters, Sample 4 (S. aureus 29213; pH 5.0): 14 mm | Clearing zone diameters, Average +/− SD (S. aureus 29213; pH 5.0, n=4, pH 5): 15.3 mm and 15.3 +/− 1.0 mm | Ave. Abs at 650 nm (S. aureus 6538 biofilm): 0.48

CC(C)(CS(=O)(=O)O)N(Cl)Cl [NVC-422, N,N-dichloro-2,2-dimethyltaurine]
amount of compound the formulation can hold ([1]; 1% AA-1 formulation): up to 2% | amount of compound the formulation can hold ([1]; 2% AA-1 formulation): up to 3.5%
